From paper PMC9894685, “Abscisic acid agonists suitable for optimizing plant water use” (Frontiers in Plant Science, 2023)
pIC50: −log10 of the molar value. Values joined by “and” are separate entries in the source; they are usually repeats but may differ in a detail not shown here. Identical values can stand only once. Like-named read-outs stand apart in the source and are kept apart here.

Columns and labels:
Arabidopsis plants [1] = assay: Foliar administration and thermal imaging of leaf temperature (transpiration), Arabidopsis; assay type: in vivo, Arabidopsis thaliana
Procedure: (§1) Thermal imaging was carried out as described ([Yang et al., 2016]). An assessment of the efficacy of ABA and CCPs was conducted by using 35-day-old Arabidopsis and 30-day-old wheat plants. Stock solutions (10 mM) of CCPs and ABA dissolved in dimethyl sulfoxide (DMSO) were diluted to the respective ligand concentrations (10, 30, 100 µM) in water containing 0.01% (v/v) Tween 20. Aqueous Tween 20 solutions supplemented with 0.1%, 0.3%, and 1% DMSO served for mock treatments. The solutions were sprayed onto the leaf surface until the run-off of droplets. One day after application (unless otherwise indicated), thermal imaging was conducted using the InfraTec instrument (IR-TCM 384, InfraTec, Dresden, Germany). The leaf temperature of Arabidopsis was determined as the average temperature of all leaves. The leaf temperature of wheat was determined as described ([Yang et al., 2019]).

RCAR11-ABI2 = assay: Yeast ABA signal pathway LUC reporter, RCAR11-ABI2; assay type: cell-based, Arabidopsis thaliana
Procedure: The yeast cultivation and the life luciferase assay were performed as described ([Ruschhaupt et al., 2019]). Briefly, the reporter yeast expressing an ABA-dependent luciferase gene (LUC) was transformed with different combinations of ABA signaling components as indicated. Golden gate cloning ([Binder et al., 2014]) was used to construct pYEAST_LII_5‐6_CEN_URA vector with TDH3 promoter and TDH1 terminator (tTDH1), pYEAST_LII_1‐2_CEN_LEU vector with GK1 promoter and tTDH1, and pYEAST_LII_3‐4_CEN_TRP with the GAL1 promoter (pGAL1) and tTDH1 to express RCARs, PP2Cs, and OST1 (SnRK2.6), respectively ([Ruschhaupt et al., 2019]). The expression of ABF2 in yeast relies on a modified pGREG503 vector, in which pGAL1 ([Jansen et al., 2005]) was replaced by the ADH1 promoter.
Colonies of freshly transformed cells were inoculated in 0.5 mL supplemented synthetic dextrose (SD) medium and incubated at 30°C in a gyratory shaker (Thermoshake-THO500, Gerhardt, Königswinter, Germany) at 200 rpm for 16-18 h. After overnight growth, the cells were harvested and washed in SD medium followed by inoculation in SD medium containing 2% galactose for induction of SnRK2 kinases under the control of the GAL1 promoter and supplementation with ligands at indicated concentrations, to an OD600 of 0.2 in flat-bottom 96-well plates (CytoOne, Starlab, Hamburg, Germany). Yeast cultures were incubated at 30°C and 200 rpm for 16-18 h before determination of LUC activity and cell density. Light emission of yeasts was detected in a HIDEX plate luminometer (HIDEX, Turku, Finland) after injection of 100 µL freshly prepared luciferin substrate (1 mM D-luciferin, Promega) provided in 100 mM citric acid, pH 3 ([Leskinen et al., 2003]) for 5 s and was corrected for background. The LUC activity was normalized to the cell density (OD600) measured in 96-well flat plates (Sarstedt, Nümbrecht, Germany). LUC activity is given as the ratio of light emission to OD600 in counts per second.

wheat plants = assay: Foliar administration and thermal imaging of leaf temperature, wheat; assay type: in vivo, Triticum aestivum
Procedure: as §1

RCAR1-ABI2 = biological target: T1, RCAR1-ABI2 (Arabidopsis thaliana, UniProt O04719+Q84MC7); assay: In vitro phosphatase assay, ABI2 with RCAR1; assay type: biochemical
T1 construct: 6xHis (N); made in house; host or cells: Escherichia coli BL21
T1 sequence (Q84MC7 1-187): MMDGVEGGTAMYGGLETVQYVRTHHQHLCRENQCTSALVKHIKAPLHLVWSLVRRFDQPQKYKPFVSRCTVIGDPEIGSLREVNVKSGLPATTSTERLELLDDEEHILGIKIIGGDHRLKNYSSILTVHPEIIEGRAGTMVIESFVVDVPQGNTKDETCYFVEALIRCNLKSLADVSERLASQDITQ
T1 sequence (O04719 1-423): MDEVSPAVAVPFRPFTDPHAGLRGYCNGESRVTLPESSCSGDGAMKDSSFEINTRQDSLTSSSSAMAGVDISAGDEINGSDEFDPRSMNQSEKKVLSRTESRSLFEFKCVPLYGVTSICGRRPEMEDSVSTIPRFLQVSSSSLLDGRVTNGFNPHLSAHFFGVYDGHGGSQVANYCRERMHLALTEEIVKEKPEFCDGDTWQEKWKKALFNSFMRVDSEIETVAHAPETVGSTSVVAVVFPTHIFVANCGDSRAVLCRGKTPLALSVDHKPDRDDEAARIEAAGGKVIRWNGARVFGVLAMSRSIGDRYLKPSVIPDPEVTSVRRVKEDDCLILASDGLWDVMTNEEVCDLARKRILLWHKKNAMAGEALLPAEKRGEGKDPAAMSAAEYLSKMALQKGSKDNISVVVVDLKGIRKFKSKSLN
Procedure: (§2) Expression, purification, and analysis of RCAR and PP2C proteins were performed essentially as described ([Ruschhaupt et al., 2019]). Briefly, the ABA receptors RCAR1, RACR8, and RCAR11 were expressed with an aminoterminal histidine tag using the pSEVA431_LII_6xHIS::RCAR1/RCAR8/RCAR11. ABA coreceptors were expressed as histidine-tagged fusions with the maltose-binding protein using the pSEVA431_LII_6xHIS::MBP::ABI2/HAB1. All constructs were transformed and expressed in Escherichia coli strain BL21 and purified to homogeneity according to supplier’s instruction (GE Healthcare, Chicago, USA). The receptor assay was performed with 100 nM PP2C and a two-fold molar excess of RCAR. Values are means ± SD of three replicates. […] The maximum inhibition was set to 100% in the figures. The phosphatase activity was measured using 4-methylumbelliferyl-phosphate as a substrate ([Meinhard and Grill, 2001]). The increase in fluorescence was recorded over 25 min with excitation and emission wavelengths at 360 and 460 nm, respectively, using a Synergy 2 plate reader (Bio-Tec, Winooski, USA).

Arabidopsis plants [2] = assay: Progressive drought experiment: growth, water consumption, WUE; assay type: in vivo, Arabidopsis thaliana; conditions: 30 µM
Procedure: The progressive drought experiment was performed as described ([Yang et al., 2016]). Briefly, 18-day-old Arabidopsis plantlets grown under well-watered and short-day conditions (8 h light with 150 µmol m^-2 s^-1 PAR, 22°C, 50% relative humidity, and 16 h dark with 17°C, 60% relative humidity) were transferred to 0.2 L pots loaded with water-saturated soil (33.4 ± 0.4 g dry soil with 148 ± 2 g water). At the onset of the progressive drought (day 0), water was withheld, and a sealed soil surface prevented evaporation. A slowly increasing water deficit was achieved by transpirational water loss from plants. The progressive drought experiment lasted for eight weeks until mock-treated plants had consumed all the plant-usable water. […] For measuring growth and water consumption, leaf rosettes were regularly photographed, and the pots were weighed. The projected leaf area of Arabidopsis rosettes was analyzed by using Photoshop Elements software (Adobe, San Jose, USA). The consumed water was calculated as the difference in pot weight between day 0 and the designated days. The retained water was expressed as the difference between the pot weight at the end of the drought (day 57) and the weight of the loaded dry soil. Above-ground material was harvested at day 57, and the biomass was determined after drying the material for three days at 60°C to achieve constant weight. WUE was calculated as the ratio of above-ground dry biomass to consumed water. The data for the mock- and ABA-treated plants in the progressive drought experiment were already published ([Yang et al., 2019]).

ABI2 with RCARs = assay: In vitro receptor assay, ABI2 in the presence of RCAR1, RCAR8 or RCAR11; assay type: biochemical, Arabidopsis thaliana
Procedure: as §2

HAB1 with RCARs = assay: In vitro receptor assay, HAB1 in the presence of RCARs; assay type: biochemical, Arabidopsis thaliana; conditions: HAB1, in the presence of RCARs and saturating ABA levels (1 mM)
Procedure: as §2

Arabidopsis plants [3] = system: Arabidopsis plants; parameters: method as in Yang et al., 2019; conditions: ref Yang et al., 2019, cited from earlier work
[4] = system: Arabidopsis aba2-1 protoplasts; assay: Transient ABA response in Arabidopsis protoplasts (pRD29B::LUC, RCAR11 and ABI2 effectors); assay type: cell-based, Arabidopsis thaliana; conditions: aba2-1 protoplasts, 18 h ligand exposure
Procedure: Preparation of Arabidopsis protoplasts, transfection of the effector DNA, and analysis of LUC activity were performed as described ([Tischer et al., 2017]). In essence, 10^5 mesophyll protoplasts from leaves of the ABA deficient mutant aba2-1 ([Schwartz et al., 1997]) were transfected with 4 µg DNA of the pRD29B::LUC construct as an ABA-responsive reporter and 3 µg of p35S::GUS (β-glucuronidase reporter gene) expression cassette as an internal control for normalization. In addition, 3 µg p35S::RCAR11 or the empty vector with the same expression cassette were co-expressed with 0.1 µg p35S::ABI2 effector constructs ([Tischer et al., 2017]), and the ligand-dependent induction of ABA-responsive reporter expression were assessed after incubation at 22°C. The expression of LUC and GUS was determined 18 h after transfection and ligand administration.

pig liver esterase = assay: De-esterification of CCPs by pig liver esterase (HPLC); assay type: in vitro ADME; conditions: 4 nkat pig liver esterase, 2 h, 25°C
Excerpt: (S)-ABA was purchased from CHEMOS (www.chemos.de). Other chemicals were of the highest purity available and obtained from SigmaAldrich (www.sigmaaldrich.com), ROTH (www.carlroth.com), and J. T. Baker (http://www.avantormaterials.com) unless otherwise indicated. The Arabidopsis (Arabidopsis thaliana) accession Col-0 was received from the Nottingham Arabidopsis Stock Center. The elite wheat (Triticum aestivum) cultivar, Elixer, was provided from Bayerische Landesanstalt für Landwirtschaft, Freising. ABA and CCPs were dissolved in DMSO and diluted to designated concentrations before administration. For de-esterification, 0.2 µmol CCP was treated with 4 nkat pig liver esterase (Sigma-Aldrich, Burlington, MA, USA) for 2 h at 25°C according to supplier’s instruction.

wheat = system: wheat; parameters: method as in Vaidya et al., 2019; conditions: ref Vaidya et al., 2019; cited from earlier work
Arabidopsis = system: Arabidopsis; parameters: method as in Vaidya et al., 2019; conditions: 50 µM; ref Vaidya et al., 2019; cited from earlier work
tomato = system: tomato; parameters: method as in Vaidya et al., 2019; conditions: ref Vaidya et al., 2019; cited from earlier work

CC1=CC(=O)CC(C)(C)[C@@]1(O)/C=C/C(C)=C\C(=O)O [ABA, abscisic acid]
Time until leaf temperature reached starting values (Arabidopsis plants [1]; 10 µM): eight | Time of optimum of inhibited transpiration (Arabidopsis plants [1]; after single administration): between two and four days after administration | LUC reporter induction compared to mock-treated cells (RCAR11-ABI2; 30 µM exogenous ligand, 16 h exposure): approximately eightfold | Higher leaf temperature compared to the control (wheat plants; 0.1 mM, one day after administration, averaged from six experiments): approximately 0.8 °C | Leaf temperature increase at 100 μM ABA (wheat plants; 24 h, separate experiments run in parallel to the CCPs): 0.6 ± 0.18 °C and 0.9 ± 0.19 °C and 0.6 ± 0.12 °C and 0.9 ± 0.03 °C and 0.9 ± 0.10 °C and 0.9 ± 0.07 °C | pIC50 (RCAR1-ABI2): 7.00 | Daily growth reduction (Arabidopsis plants [2]): 1% | Residual phosphatase activity (ABI2 with RCARs; ABI2, in the presence of RCARs and saturating ABA levels (1 mM)): 10% | Residual phosphatase activity (HAB1 with RCARs): 4% | Growth of leaf rosettes compared to mock (Arabidopsis plants [3]; 10 µM, for six weeks): indistinguishable | WUE increase (Arabidopsis plants [3]; 10 µM): 14% | Soil water retained at the end of the drought, of initial soil water (Arabidopsis plants [3]; 30 µM, day 57): about 25% | Reduced projected leaf area (Arabidopsis plants [3]; 30 µM, within 19 days): 20% | Growth of leaf rosettes compared to mock (Arabidopsis plants [3]; 30 µM): growth reduction | WUE increase (Arabidopsis plants [3]; 30 µM): 26%

CCCOC(=O)/C=C(\C=C\C(O)(C(C)C)C1(C#N)CC1)CC (stereo not drawn) [CCP3]
Leaf temperature increase, activity compared to ABA (Arabidopsis plants [1]; 10, 30, 100 µM, one day after application): almost as active as the non-esterified CCP2 | Activity and persistence of minimized transpiration compared to ABA (Arabidopsis plants [1]; single application 100 µM, recorded for 19 days): more active and persistent than ABA | Reporter activation after pig liver esterase treatment (RCAR11-ABI2; 30 µM, PLE-treated prior to yeast exposure): comparable to esterase-treated CCP2 and ABA | Induction of ABA signaling compared to ABA [4]: not observed | Leaf temperature increase, activity compared to ABA (wheat plants; 100 μM, 24 h after administration): higher activity than ABA | Growth reduction compared to the control (Arabidopsis plants [2]): about 60% | Leaf temperature increase (Arabidopsis plants [2]; 24 h after the first application): highest temperature increase | Reduction in biomass accumulation compared to the control (Arabidopsis plants [2]; day 57): 60% | Soil water retained at the end of the drought, of initial soil water (Arabidopsis plants [2]; day 57): approximately 75% | Growth of leaf rosettes compared to mock (Arabidopsis plants [2]; three administrations): growth reduction | Degree of ester-bond cleavage by PLE (conversion into free acid) (pig liver esterase): complete de-esterification | Activity in the in vitro receptor assay after esterase treatment (ABI2 with RCARs; pig liver esterase-treated): comparable activity as CCP2

N#Cc1c(C2CC2)cc(CC(=O)NC2(C(=O)O)CCCCC2)cc1C1CC1 [Opabactin]
Activity in controlling transpiration compared to ABA (wheat): comparable activity | Efficacy in elevating leaf temperature (Arabidopsis): ABA-comparable efficacy | Efficiency in controlling transpiration compared to ABA (tomato): more efficient than ABA
